According to paper PMC3222680 (PLoS ONE, 2011):

Columns and labels:
[1] = tested on: chimera α–β or chimera β–α transfected alone; test: Whole cell patch-clamp, chimeras transfected alone into HEK293 cells; format: cell-based, human; settings: glycine up to 100 mM, data not shown
Method: (§1) The human GlyR α1 and β subunit cDNAs were subcloned into the pcDNA3.1zeo+ (Invitrogen) or pGEMHE [44] plasmid vectors for expression in HEK293 cells or Xenopus oocytes, respectively. Site-directed mutagenesis and chimera construction were performed using the QuickChange (Stratagene, La Jolla, CA, USA) mutagenesis and multiple-template-based sequential PCR protocols, respectively.
(§2) The effects of the hyperekplexia-mimicking mutations, K24′A, V25′A and Y27′A, were examined on GlyRs expressed in HEK293 cells (ATCC). Details of the HEK293 cell culture, GlyR expression and electrophysiological recording of the HEK293 cells are described elsewhere. Briefly, HEK293 cells were maintained in DMEM supplemented with 10% fetal bovine serum. Cells were transfected using a calcium phosphate precipitation protocol. When co-transfecting the α1 together with the β or any other chimera subunits, their respective cDNAs were combined in a ratio of 1∶10. In addition, the pEGFP-N1 (Clontech) was co-transfected to facilitate identifying the transfected cells. […] Cells were treated with external Ringer's solution and internal CsCl solution [30]. Cells were voltage-clamped at −40 mV. When the heteromeric GlyRs were expressed, the picrotoxin sensitivity was tested to confirm that the majority of receptors are heteromers, [30].

[2] = tested on: α-β, β-α, αB-β and αT-β subunits expressed alone; settings: chimeric subunits expressed alone in oocytes; data not shown
Method: (§3) VCF experiments were performed on GlyRs expressed in Xenopus laevis oocytes. Female Xenopus laevis frogs were purchased from Xenopus Express, France. Details of oocyte preparation, GlyR expression and VCF recording are described elsewhere. Briefly, the mMessage mMachine kit (Ambion, Austin, TX) was used to generate capped mRNA. The mRNA was injected into oocytes of the female Xenopus laevis frog with 10 ng (1 ng α1 and 9 ng β or any other chimeric subunits) per oocyte. After injection, the oocytes were incubated in ND96 solution [33] for 3–4 days at 18 °C before recording.
(§4) The sulfhydryl-reactive reagent, sulforhodamine methanethiosulfonate (MTSR, Toronto Research Chemicals, North York, Ontario, Canada), was used to label 19′C residues. […] The oocytes were then transferred to the recording chamber and perfused with ND96 solution. The current was recorded by the two-electrode voltage clamp configuration and the recording electrode was filled with 3 M KCl. Cells were voltage-clamped at −40 mV. The fluorescence was recorded using the PhotoMax 200 photodiode detection system (Dagan Corp., Minneapolis, MN).

homomeric α1Y27′A GlyR = homomeric α1Y27′A GlyR (Homo sapiens, UniProt P23415, Y307A); settings: HEK293
Method: as §1, §2

αWT β-α19′C GlyR = αWT β-α19′C GlyR (Homo sapiens, UniProt P23415+P48167, C137A/C69A/R299C); settings: MTSR-labeled, oocytes
Method: as §1
(§5) For the VCF experiments, both GlyR α1 and β subunit cDNAs in the pGEMHE vector were mutated to substitute non-essential background cysteines with alanines, including α1C41A and βC115AC291A [46], [47].
as §3, §4
(§6) Results are expressed as mean±standard error of the mean of three or more independent experiments. […] Statistical significance was determined using the Student's t-test.

αWT α-β19′C GlyR = αWT α-β19′C GlyR (Homo sapiens, UniProt P23415+P48167, C69A); settings: MTSR-labeled, oocytes
Method: as §1, §5, §3, §4, §6

αWT αT-β19′C GlyR = αWT αT-β19′C GlyR (Homo sapiens, UniProt P23415+P48167, A317C/C137A/C313A/C69A/Q95A); settings: MTSR-labeled, oocytes
Method: as §1, §5, §3, §4, §6

αWT β19′C GlyR = αWT β19′C GlyR (Homo sapiens, UniProt P23415+P48167, A317C/C137A/C313A/C69A); settings: MTSR-labeled, oocytes
Method: as §1, §5, §3, §4, §6

α19′C βWT GlyR = α19′C βWT GlyR (Homo sapiens, UniProt P23415+P48167, C137A/C313A/C69A/R299C); settings: MTSR-labeled, oocytes
Method: as §1, §5, §3, §4, §6

αWT αB-β19′C GlyR = αWT αB-β19′C GlyR (Homo sapiens, UniProt P23415+P48167, A80Q/C69A); settings: MTSR-labeled, oocytes
Method: as §1, §5, §3, §4, §6

αY27′A β-αWT GlyR = αY27′A β-αWT GlyR (Homo sapiens, UniProt P23415+P48167, Y307A)
Method: as §1
For the β-α chimeras used for determining the effect of hyperekplexia-mimicking mutations on α1 β GlyR channel function, the Thr at the M2 6′ position was replaced by a Cys. […] Through such a modification, picrotoxin resistance was used to distinguish the heteromeric α1 β-α GlyR from the homomeric α1 GlyR when the α1 and β-α subunits were co-expressed.
The effects of the hyperekplexia-mimicking mutations, K24′A, V25′A and Y27′A, were examined on GlyRs expressed in HEK293 cells (ATCC). Details of the HEK293 cell culture, GlyR expression and electrophysiological recording of the HEK293 cells are described elsewhere. Briefly, HEK293 cells were maintained in DMEM supplemented with 10% fetal bovine serum. Cells were transfected using a calcium phosphate precipitation protocol. […]
as §6

αY27′A βWT GlyR = αY27′A βWT GlyR (Homo sapiens, UniProt P23415+P48167, Y307A)
Method: as §1, §2, §6

αY27′A α-βWT GlyR = αY27′A α-βWT GlyR (Homo sapiens, UniProt P23415+P48167, Y307A)
Method: as §1, §2, §6

[3] = Hill coefficient of glycine-induced current

Chain of α19′C βWT GlyR (P23415 29-449 isoform P23415-2 C69A/R299C limits assumed): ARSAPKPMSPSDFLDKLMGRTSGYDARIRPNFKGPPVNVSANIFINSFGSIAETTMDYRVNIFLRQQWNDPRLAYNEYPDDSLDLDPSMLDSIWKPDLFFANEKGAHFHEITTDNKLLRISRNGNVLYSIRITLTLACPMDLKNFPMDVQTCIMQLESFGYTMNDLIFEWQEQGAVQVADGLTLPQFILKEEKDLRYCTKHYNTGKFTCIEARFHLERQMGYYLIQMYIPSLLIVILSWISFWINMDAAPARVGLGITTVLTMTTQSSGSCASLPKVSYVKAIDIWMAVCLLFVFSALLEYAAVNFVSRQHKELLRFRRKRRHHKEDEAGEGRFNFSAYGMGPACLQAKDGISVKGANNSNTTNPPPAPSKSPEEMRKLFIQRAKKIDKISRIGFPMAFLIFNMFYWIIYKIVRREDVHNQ
Chain of α19′C βWT GlyR (P48167 23-497 C137A/C313A): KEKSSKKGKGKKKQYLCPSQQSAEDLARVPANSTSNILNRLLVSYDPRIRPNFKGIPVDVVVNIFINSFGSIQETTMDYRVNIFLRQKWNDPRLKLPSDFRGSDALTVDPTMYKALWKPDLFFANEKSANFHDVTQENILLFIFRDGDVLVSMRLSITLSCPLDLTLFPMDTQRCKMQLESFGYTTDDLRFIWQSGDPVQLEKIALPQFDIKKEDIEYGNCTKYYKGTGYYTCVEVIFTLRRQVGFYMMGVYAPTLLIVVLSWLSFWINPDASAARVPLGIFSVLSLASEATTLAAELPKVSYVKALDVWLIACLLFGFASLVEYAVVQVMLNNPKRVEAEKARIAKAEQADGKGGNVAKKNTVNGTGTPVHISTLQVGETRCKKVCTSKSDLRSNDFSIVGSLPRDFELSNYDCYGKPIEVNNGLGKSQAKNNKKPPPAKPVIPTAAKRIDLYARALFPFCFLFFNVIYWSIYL
Chain of αWT α-β19′C GlyR (P23415 29-449 isoform P23415-2 C69A): as the sequence (P23415 29-449 isoform P23415-2 C69A/R299C limits assumed) above, with C271R counted along it
Chain of αWT α-β19′C GlyR (P23415+P48167 fused with the stated changes): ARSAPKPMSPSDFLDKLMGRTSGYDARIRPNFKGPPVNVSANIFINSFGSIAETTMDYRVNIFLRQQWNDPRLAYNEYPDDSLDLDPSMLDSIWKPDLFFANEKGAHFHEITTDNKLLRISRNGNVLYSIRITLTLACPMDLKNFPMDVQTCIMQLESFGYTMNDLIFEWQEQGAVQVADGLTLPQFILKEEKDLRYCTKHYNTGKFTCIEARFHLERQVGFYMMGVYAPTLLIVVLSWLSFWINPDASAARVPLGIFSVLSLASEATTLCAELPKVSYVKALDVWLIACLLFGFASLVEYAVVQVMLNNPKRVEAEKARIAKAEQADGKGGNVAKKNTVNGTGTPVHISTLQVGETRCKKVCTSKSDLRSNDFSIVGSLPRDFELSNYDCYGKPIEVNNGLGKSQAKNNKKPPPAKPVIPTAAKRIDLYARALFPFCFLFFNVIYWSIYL
Chain of αWT β-α19′C GlyR (P23415 29-449 isoform P23415-2 C69A): as the sequence (P23415 29-449 isoform P23415-2 C69A/R299C limits assumed) above, with C271R counted along it
Chain of αWT β-α19′C GlyR (P48167+P23415 fused with the stated changes): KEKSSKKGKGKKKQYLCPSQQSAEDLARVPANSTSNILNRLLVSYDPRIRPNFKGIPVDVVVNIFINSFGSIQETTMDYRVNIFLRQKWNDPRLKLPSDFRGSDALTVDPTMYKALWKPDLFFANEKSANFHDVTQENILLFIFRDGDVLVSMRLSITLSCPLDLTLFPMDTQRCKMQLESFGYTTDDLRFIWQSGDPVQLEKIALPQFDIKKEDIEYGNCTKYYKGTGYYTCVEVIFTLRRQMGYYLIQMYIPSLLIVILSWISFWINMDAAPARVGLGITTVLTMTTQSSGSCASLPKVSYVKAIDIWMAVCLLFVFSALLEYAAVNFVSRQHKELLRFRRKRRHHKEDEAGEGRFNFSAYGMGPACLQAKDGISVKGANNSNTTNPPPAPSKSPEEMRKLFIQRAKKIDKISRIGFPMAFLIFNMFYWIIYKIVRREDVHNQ
Chain of αWT αT-β19′C GlyR (P23415 29-449 isoform P23415-2 C69A): as the sequence (P23415 29-449 isoform P23415-2 C69A/R299C limits assumed) above, with C271R counted along it
Chain of αWT αT-β19′C GlyR (P48167 23-497 with the stated changes): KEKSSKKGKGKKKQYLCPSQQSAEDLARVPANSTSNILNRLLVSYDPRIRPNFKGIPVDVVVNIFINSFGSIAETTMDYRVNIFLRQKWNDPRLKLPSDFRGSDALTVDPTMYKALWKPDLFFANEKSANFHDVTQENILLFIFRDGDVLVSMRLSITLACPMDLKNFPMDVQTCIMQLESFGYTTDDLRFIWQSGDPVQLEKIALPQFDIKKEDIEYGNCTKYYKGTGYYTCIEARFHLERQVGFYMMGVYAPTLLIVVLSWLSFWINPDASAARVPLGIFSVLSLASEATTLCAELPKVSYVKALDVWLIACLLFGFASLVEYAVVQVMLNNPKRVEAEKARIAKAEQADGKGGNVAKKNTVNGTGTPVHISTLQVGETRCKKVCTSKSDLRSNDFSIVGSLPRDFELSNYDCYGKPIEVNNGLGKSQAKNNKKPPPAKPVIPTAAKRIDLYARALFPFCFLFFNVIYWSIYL
Chain of αWT αB-β19′C GlyR (P23415 29-449 isoform P23415-2 C69A): as the sequence (P23415 29-449 isoform P23415-2 C69A/R299C limits assumed) above, with C271R counted along it
Chain of αWT αB-β19′C GlyR (P23415+P48167 fused with the stated changes): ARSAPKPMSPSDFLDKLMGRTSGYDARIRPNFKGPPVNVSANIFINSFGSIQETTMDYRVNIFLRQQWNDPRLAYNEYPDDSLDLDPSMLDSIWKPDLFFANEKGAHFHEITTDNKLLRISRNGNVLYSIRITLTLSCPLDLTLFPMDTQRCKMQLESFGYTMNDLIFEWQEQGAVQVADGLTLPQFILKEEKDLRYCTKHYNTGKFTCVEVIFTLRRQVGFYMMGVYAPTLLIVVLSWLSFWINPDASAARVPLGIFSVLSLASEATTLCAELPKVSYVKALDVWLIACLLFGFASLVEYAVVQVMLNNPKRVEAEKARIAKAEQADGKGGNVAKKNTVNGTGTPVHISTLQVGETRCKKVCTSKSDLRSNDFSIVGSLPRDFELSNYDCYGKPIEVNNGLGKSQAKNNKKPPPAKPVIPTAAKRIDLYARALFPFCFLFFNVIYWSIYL
Chain of homomeric α1Y27′A GlyR (P23415 29-457 Y307A): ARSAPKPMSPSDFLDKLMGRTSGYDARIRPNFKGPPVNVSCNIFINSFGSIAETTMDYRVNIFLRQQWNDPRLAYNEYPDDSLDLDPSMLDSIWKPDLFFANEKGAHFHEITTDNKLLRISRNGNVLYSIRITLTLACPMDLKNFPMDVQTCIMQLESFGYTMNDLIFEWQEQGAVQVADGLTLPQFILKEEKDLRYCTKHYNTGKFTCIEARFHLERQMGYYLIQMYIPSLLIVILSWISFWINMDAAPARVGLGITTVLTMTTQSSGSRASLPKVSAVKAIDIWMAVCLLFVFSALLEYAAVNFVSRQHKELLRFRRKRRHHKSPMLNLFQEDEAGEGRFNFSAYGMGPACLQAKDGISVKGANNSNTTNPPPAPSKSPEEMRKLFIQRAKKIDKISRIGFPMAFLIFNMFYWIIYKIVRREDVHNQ

For `NCC(=O)O` [glycine], the “current upon application of glycine” value [1] was “neither chimera, when transfected alone into HEK293 cells, induced any current”, the “glycine-induced current and fluorescence changes” value [2] was “neither glycine-induced current nor fluorescence changes could be detected” and the glycine-induced current (homomeric α1Y27′A GlyR) was “no glycine-induced current was detected”. The “Current Imax” value (αWT β-α19′C GlyR) was 3.19±0.08 µA, the “Current nH” value (αWT β-α19′C GlyR) was 2.26±0.11 and the “Fluorescence Fmax” value (αWT β-α19′C GlyR) was 3.86±0.37%. The “Fluorescence nH” value (αWT β-α19′C GlyR) was 1.15±0.05, the “Current Imax” value (αWT α-β19′C GlyR) was 1.53±0.09 µA and the “Current nH” value (αWT α-β19′C GlyR) was 2.36±0.32. For the same molecule, the “Fluorescence Fmax” value (αWT α-β19′C GlyR) was 6.58±1.17%, the “Fluorescence nH” value (αWT α-β19′C GlyR) was 2.10±0.13 and the “Current Imax” value (αWT αT-β19′C GlyR) was 2.19±0.20 µA. The “Current nH” value (αWT αT-β19′C GlyR) was 1.45±0.06, the “Fluorescence Fmax” value (αWT αT-β19′C GlyR) was 11.5±0.6% and the “Fluorescence nH” value (αWT αT-β19′C GlyR) was 2.31±0.06. For the same molecule, the “Current Imax” value (αWT β19′C GlyR) was 2.46±0.19 µA, the “Current nH” value (αWT β19′C GlyR) was 2.73±0.38 and the “Fluorescence Fmax” value (αWT β19′C GlyR) was 7.58±0.84%. The “Fluorescence nH” value (αWT β19′C GlyR) was 1.47±0.12, the “Current Imax” value (α19′C βWT GlyR) was 3.51±0.24 µA and the “Current nH” value (α19′C βWT GlyR) was 1.20±0.16. The “Fluorescence Fmax” value (α19′C βWT GlyR) was 9.42±0.53%, the “Fluorescence nH” value (α19′C βWT GlyR) was 0.97±0.04 and the “Current Imax” value (αWT αB-β19′C GlyR) was 2.57±0.14 µA. For the same molecule, the “Current nH” value (αWT αB-β19′C GlyR) was 2.11±0.11, the “Fluorescence Fmax” value (αWT αB-β19′C GlyR) was 8.52±1.07% and the “Fluorescence nH” value (αWT αB-β19′C GlyR) was 1.19±0.12. It also gave a nH (αY27′A β-αWT GlyR; [3]) of 1.0±0.1, an Imax (αY27′A β-αWT GlyR; glycine-induced current) of 1.3±0.3 nA and a nH (αY27′A βWT GlyR; [3]) of 1.1±0.0. It also gave an Imax (αY27′A βWT GlyR; glycine-induced current) of 2.0±1.0 nA, a nH (αY27′A α-βWT GlyR; [3]) of 0.78±0.03 and an Imax (αY27′A α-βWT GlyR; glycine-induced current) of 5.7±1.3 nA.
